Test results as given in paper PMC4440816, “Positron Emission Tomography studies with [^11C]PBR28 in the Healthy Rodent Brain: Validating SUV as an Outcome Measure of Neuroinflammation” (PLoS ONE, 2015).
“And” between values parts separate entries of the source, which are not always exact repeats. Equal entries are not always repeated.

Key:
TSPO = details: cited from earlier work
[1] = target: T1, 18 kD Translocator protein (TSPO) (Rattus norvegicus, UniProt P16257); assay: Dynamic PET with arterial sampling; VT by 2-TCM and Logan graphical analysis, compared with SUV; format: in vivo, Wistar rats; details: for VT 2-TCM / VT Logan: n = 3; for VT Logan: t* = 21 min
T1 construct: from tissue; host or cells: brain of living healthy male Wistar rats (in vivo PET)
Experimental: (§1) The study was divided in two parts. In the first part arterial sampling was performed in four rats to allow for quantification of [^11C]PBR28 binding and comparison with the SUV. In the second part four rats and four mice were used to determine the test-retest variability of the SUV, with a 7-day interval between the scans.
(§2) The animals were anesthetized with isoflurane (induction 4–5% mixed with oxygen and maintenance 1.5–2% mixed with air/oxygen (50/50)) at a flow rate of 1 L/min and a cannula was inserted into the tail vein for the injection of [^11C]PBR28. After the cannulation, the rats were positioned into the nanoScan PET/MRI or nanoScan PET/CT (Mediso Ltd., Budapest, Hungary) in a transaxial position with their heads in the centre of the field of view. A bolus injection of [^11C]PBR28 was given via the canula in the tail vein at start of the PET measurement. The injection was followed by a saline flush. An emission scan of 63 minutes was acquired for all animals. The average injected radioactivity was 23 ± 5 MBq for the rats and 9.9 ± 1.6 MBq for the mice. The injected mass was 0.05 ± 0.03 μg (n = 8) in rats and 0.011 ± 0.011 μg (n = 8) in mice.
(§3) The PET data was acquired in list mode and was reconstructed into 25 timeframes (4x10 s, 4x20 s, 4x60 s, 7x180 s, 6x360 s) with MLEM reconstruction (20 iterations). Image data were not corrected for attenuation or scatter. For each animal a T1-weighted MRI scan (Isotropic FSE sequence, TR/TE: 2000/84.1) was made for anatomical reference.
(§4) Arterial blood sampling was performed during the PET scan in the first group of four rats. In addition to the insertion of the cannula in the tail vein, another cannula was inserted into the femoral artery. For the rats, sixteen arterial blood samples of 0.1 ml were taken for measurement of radioactivity in plasma and blood using a gamma counter. Four samples of 0.5 ml blood were taken for radiometabolite analysis at 4, 20, 40 and 60 minutes after injection.
(§5) The reconstructed dynamic PET measurements were manually aligned with the corresponding MRI scans. The MRI and PET scans were then normalized to the rat or mice brain MRI template available in PMOD (PMOD 3.2 Zurich, Switzerland). Eight regions of interest were defined using the available template in PMOD, i.e. the striatum, hippocampus, hypothalamus, midbrain, thalamus, cerebral cortex, brainstem and cerebellum. Time-activity curves were generated for each region of interest. For all animals the regional brain uptake values were expressed as SUV and were calculated for 57–63 minute after injection, i.e. the last time-frame. The time used for calculating the SUV was based on the tissue-to-plasma ratio obtained from the first part of the study. From 15–50 minutes the tissue-to-plasma ratio is declining, and the estimated equilibrium state is reached at 50–60 minutes after injection. However, it can be beneficial for future studies to use a shorter scan time, i.e. to allow for scanning of more animals per batch of [^11C]PBR28 and to improve counting statistics. The SUV was therefore also calculated for the time-frame of 39–45 minute after injection, In both cases the SUV was calculated according to Eq 1, and it was assumed that 1 cm^3 of brain tissue equals 1 g.
(§6) SUV=tissue activity concentration(Bq/cm3)/injected dose(Bq)/body weight(g) (1)
For the first groups, the arterial samples and percentage of metabolites were used to determine the metabolite corrected plasma-input function. Two-tissue compartment modelling (2-TCM) and Logan graphical analysis were used to calculate the volume of distribution (VT), using the metabolite corrected plasma curve as input. For the Logan analysis data was fitted from 21 minutes after injection (t* = 21 min).

[2] = Arterial blood and plasma radioactivity (gamma counter); format: in vivo, Wistar rats; details: rats; for plasma/blood ratio of radioactivity: average
Experimental: as §4

[3] = Radiometabolite analysis of plasma by radio-HPLC; format: in vivo, Wistar rats
Experimental: as §4
To determine the percentages of radioactivity in plasma that corresponded to unchanged [^11C]PBR28 and its radioactive metabolites, reversed-phase HPLC was used. Plasma obtained after centrifugation of 0.5 ml blood at 2,000 g for 2–4 min was mixed with acetonitrile (0.35 ml) and centrifuged for 4 min. The acetonitrile extraction ratio was 93.5% ± 1.8% at 4 min, 87.8% ± 0.5% at 20 min, 85.2% ± 1.1% at 40 min and 78.9% ± 2.4% at 60 min. The supernatant was mixed with 2 ml of water and analysed using radio-HPLC. The radio-HPLC system used consisted of an interface module (D-7000; Hitachi: Tokyo, Japan), a L-7100 pump (Hitachi), an injector (model 7125, with a 5.0-mL loop; Rheodyne: Cotati, USA) equipped with a μ-Bondapak C18 column (300 x 7.8 mm, […]; Waters: New England, USA), and an ultraviolet absorption detector (L-7400, 254 nm; Hitachi) in series with a 150TR; Packard (housed in a shield of 50 mm thick lead) equipped with a 550 μL flow cell. Acetonitrile (A) and ammonium formate (100 mM) (B) were used as the mobile phase at 6.0 mL/min, according to the following gradient: 0–4 min (A/B), 40:60 → 80:20 v/v; 4.1–6 min(A/B), 80:20 v/v; 8 min (A/B), 40:60 v/v. Peaks for radioactive compounds eluting from the column were integrated and their areas were expressed as a percentage of the sum of the areas of all detected radioactive compounds (decay-corrected to the time of injection on the HPLC).

[4] = target: T1, 18 kD Translocator protein (TSPO); assay: Small animal PET brain uptake (SUV) and test-retest, rats; format: in vivo, Wistar rats; details: for ICC of SUV / TRV of SUV: Rats, SUV 57–63 min, 7-day interval
Experimental: as §1, §2, §3, §5, §6
(§7) For the test-retest study the test-retest variability was calculated using Eq 2.
(§8) TRV=|test value−retest value|/(test value+retest value)/2*100 (2)
(§9) Additionally the […] correlation coefficient (ICC) was calculated as an index of the reliability of the test-retest measurement using Eq 3, where MS = mean sum of squares, BS = between-subjects, WS = within-subjects, and df = degrees of freedom. It combines the information of the difference between and within the test and retest scan. The ICC values were interpreted as follows: 0–0.2 indicated slight agreement, 0.3–0.4 indicated fair agreement, 0.5–0.6 indicated moderate agreement, 0.7–0.8 indicated substantial agreement, and >0.8 indicated almost perfect agreement between the test and retest measures.
(§10) ICC=MSBS−MSWS/MSBS+(dfWS*MSWS) (3)

[5] = target: T2, 18 kD Translocator protein (TSPO) (Mus musculus, UniProt P50637); assay: Small animal PET brain uptake (SUV) and test-retest, mice; format: in vivo, C57BL/6J mice; details: for ICC of SUV / TRV of SUV: Mice, SUV 57–63 min, 7-day interval
T2 construct: from tissue; host or cells: brain of living healthy male C57BL/6J mice (in vivo PET)
Experimental: as §1, §2, §3, §5, §6, §7, §8, §9, §10

[6] = rats, eight brain regions, SUV 57–63 min
[7] = rats, 4 minutes after injection

## CCC(C)N([11CH3])C(=O)c1cc2ccccc2c(-c2ccccc2Cl)n1 (centres unmarked) [[^11C]PK11195]
TSPO
  non-specific binding: high level of non-specific binding

## CC(=O)N(Cc1ccccc1O[11CH3])c1ccc(Oc2ccccc2)nc1 [[^11C]PBR28, N-acetyl-N-(2-[^11C]methoxybenzyl)-2-phenoxy-5-pyridinamine]
[1]; Brainstem, rats
  VT 2-TCM: 56.7
  VT Logan: 49.7
[1]; Cerebellum, rats
  VT 2-TCM: 63.6
  VT Logan: 54.0
[1]; Cerebral cortex, rats
  VT 2-TCM: 45.3
  VT Logan: 41.5
[1]; Hippocampus, rats
  VT 2-TCM: 41.1
  VT Logan: 38.7
[1]; Hypothalamus, rats
  VT 2-TCM: 58.3
  VT Logan: 51.3
[1]; Midbrain, rats
  VT 2-TCM: 40.9
  VT Logan: 36.2
[1]; Striatum, rats
  VT 2-TCM: 37.4
  VT Logan: 34.5
[1]; Thalamus, rats
  VT 2-TCM: 35.8
  VT Logan: 34.2
[1]; data not shown
  SUV of sampled rats higher than SUV of non-sampled rats: about 30%
[1]; rats, average
  total (whole) brain VT, Logan analysis: 42.9 ± 1.7 and 43.1
  total brain VT, 2-TCM: 47.3
[1]; [6]
  correlation (r^2) between average VT (2-TCM) and average SUV: 0.92
  correlation (r^2) between average VT (Logan) and average SUV: 0.94
[2]; 20 seconds after injection
  plasma/blood ratio of radioactivity: 0.2
[2]; 60 minutes after injection
  plasma/blood ratio of radioactivity: 1.0
[2]; arterial samples
  time of peak uptake in blood and plasma after injection: around 20 seconds
[3]; plasma
  metabolism in rats: rapidly metabolized
[3]; [7]
  fraction metabolized: about 60%
  parent compound left in plasma: 40.7 ± 9.0%
[3]; rats, 20 minutes after injection
  parent compound left in plasma: 8.2 ± 2.6%
[3]; rats, 40 minutes after injection, n = 1
  parent compound left in plasma: 3.7%
[3]; rats, 60 minutes after injection
  parent compound left in plasma: 2.9 ± 1.5%
[4]; Brainstem
  ICC of SUV: 0.58
  TRV of SUV: 17.7
[4]; Cerebellum
  ICC of SUV: 0.72
  TRV of SUV: 11.5
[4]; Cerebral cortex
  ICC of SUV: 0.81
  TRV of SUV: 16.7
[4]; Hippocampus
  ICC of SUV: 0.88
  TRV of SUV: 7.7 ± 3.5 and 7.7
[4]; Hypothalamus
  ICC of SUV: 0.59
  TRV of SUV: 20.4 ± 15.4 and 20.4
[4]; Midbrain
  ICC of SUV: 0.86
  TRV of SUV: 12.3
[4]; Striatum
  ICC of SUV: 0.69
  TRV of SUV: 13.6
[4]; Thalamus
  ICC of SUV: 0.71
  TRV of SUV: 13.7
[4]; non-sampled rats, i.v. bolus
  time of maximum total brain uptake (SUV) after injection: around 1 min
[5]; Brainstem
  ICC of SUV: 0.31
  TRV of SUV: 13.2
[5]; Cerebellum
  ICC of SUV: 0.29
  TRV of SUV: 13.7
[5]; Cerebral cortex
  TRV of SUV: 13.4
[5]; Hippocampus
  ICC of SUV: 0.32
  TRV of SUV: 6.9 ± 4.7 and 6.9
[5]; Hypothalamus
  ICC of SUV: 0.01
  TRV of SUV: 23.0
[5]; Midbrain
  ICC of SUV: 0.02
  TRV of SUV: 15.1
[5]; Striatum
  TRV of SUV: 23.6 ± 15.6 and 23.6
[5]; Thalamus
  ICC of SUV: 0.71
  TRV of SUV: 7.6
[5]; mice, i.v. bolus
  time of maximum total brain uptake (SUV) after injection: around 1 min
TSPO
  affinity for the TSPO: high affinity
  specific binding compared with [^11C]PK11195: higher specific binding
